Conditions: in vivo
Experimental: This single center, open label, fixed sequence trial consisted of two stages. Stage 1 was single oral administration of ZX-7101A tablets to the subjects under fasting condition, while Stage 2 included coadministration of ZX-7101A tablets and itraconazole capsules. Participants took ZX-7101A tablets 40 mg orally under fasting condition in the morning on D1 of Stage 1 and D31 of Stage 2. In drug-drug interaction clinical trials, the selected dose of the precipitant drug should maximize the potential to identify drug-drug interaction in the context of safety (i.e., achieving an exposure level close to the highest clinically recommended dose). […] The PK of itraconazole is influenced by its formulation, food intake, and gastrointestinal pH ([Liu et al., 2016]; [Allen et al., 2015]). […] Therefore, in this study, itraconazole was administered orally after meals to achieve maximum clinical exposure. Therefore, from D26 to D50 of Stage 2, the participants took 200 mg itraconazole capsules once daily for 25 consecutive days within 30 min after eating a standard breakfast (coadministration with ZX-7101A at the same time in the morning of D31 under fasting condition). […]
The safety of subjects was assessed in terms of adverse events (AEs) and serious adverse events (SAEs) after administration based on the findings of physical examination, vital signs, ECG, and laboratory tests.

CCC(C)n1ncn(-c2ccc(N3CCN(c4ccc(OCC5COC(Cn6cncn6)(c6ccc(Cl)cc6Cl)O5)cc4)CC3)cc2)c1=O (centres unmarked) [Itraconazole, itraconazole]
TEAE: COVID-19 (human): 0 n (%) | drug-related TEAE: None of the subjects developed any drug-related TEAE
